Holding throughout (format): biochemical
In one assay the target is T1, AXL (Homo sapiens, UniProt P30530).
T1 sequence (P30530 26-894): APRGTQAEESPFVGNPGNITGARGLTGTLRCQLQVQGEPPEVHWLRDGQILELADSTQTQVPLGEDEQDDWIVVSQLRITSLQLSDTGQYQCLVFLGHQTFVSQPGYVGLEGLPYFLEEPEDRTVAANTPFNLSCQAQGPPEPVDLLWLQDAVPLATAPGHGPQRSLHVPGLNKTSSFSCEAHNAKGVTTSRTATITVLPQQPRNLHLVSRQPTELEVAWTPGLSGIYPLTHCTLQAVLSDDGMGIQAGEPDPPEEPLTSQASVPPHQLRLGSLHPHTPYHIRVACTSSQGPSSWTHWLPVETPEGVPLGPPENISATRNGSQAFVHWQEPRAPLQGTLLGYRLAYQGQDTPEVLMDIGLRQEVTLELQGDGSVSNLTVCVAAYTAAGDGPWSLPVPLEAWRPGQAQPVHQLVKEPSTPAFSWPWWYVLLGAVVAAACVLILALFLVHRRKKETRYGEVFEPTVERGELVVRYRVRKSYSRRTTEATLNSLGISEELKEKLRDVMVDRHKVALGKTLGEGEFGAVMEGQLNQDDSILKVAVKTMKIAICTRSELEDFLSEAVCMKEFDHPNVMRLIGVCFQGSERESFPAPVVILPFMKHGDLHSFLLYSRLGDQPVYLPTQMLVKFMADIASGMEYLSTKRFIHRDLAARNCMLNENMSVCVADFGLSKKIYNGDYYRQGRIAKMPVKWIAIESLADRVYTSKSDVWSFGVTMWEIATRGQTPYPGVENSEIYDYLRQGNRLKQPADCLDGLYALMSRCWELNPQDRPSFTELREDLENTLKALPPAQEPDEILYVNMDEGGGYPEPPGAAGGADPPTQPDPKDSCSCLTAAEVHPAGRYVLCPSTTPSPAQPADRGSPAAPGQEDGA
In words: TR-FRET kinase activity assay, AXL. The note with it: ATP at Km, 60 minutes. How it is done: (§1) IC50 values for compound inhibition of AXL, FLT3, MERTK and TYRO3 activity were determined using a TR-FRET activity assay. A peptide substrate with a fluorescent label is phosphorylated on a tyrosine by each enzyme, where the now phosphorylated product is bound by a Europium-labeled antibody specific to that phosphorylation site. The proximity between the antibody and the substrate gives a signal known as TR-FRET. As the enzyme is inhibited by compound, less phosphorylated peptide product is made, causing a decrease in overall signal.
(§2) Activity assays were performed in a 384-well, small volume, black microplates in an active enzyme volume of 10 uL and final developed volume of 20 uL. Final assay conditions are 50 mM HEPES pH 7.5, 10 mM MgCl2, 1 mM EGTA, 0.01% Brij 35 and 1 mM DTT, all at RT. Enzyme, substrate-labeled peptide and compound are mixed, and then the reaction is initiated with the addition of ATP at Km concentration for each enzyme. The reaction is allowed to run 60 minutes and then quenched with a 12.5 mM EDTA (ethylenediamine tetraacetic acid) solution. The plate is then developed with the addition of Europium-labeled antibody for a final volume of 20 uL and is then incubated for 30 minutes in darkness. Plates are read in a PHERASTAR® plate reader. Data are analyzed in GraphPad PRISM.
In general terms: Time-resolved FRET reads energy transfer from a long-lived donor to a nearby acceptor.

For a further assay, the target named is T2, FLT3 (Homo sapiens, UniProt P36888).
T2 sequence (P36888 27-993): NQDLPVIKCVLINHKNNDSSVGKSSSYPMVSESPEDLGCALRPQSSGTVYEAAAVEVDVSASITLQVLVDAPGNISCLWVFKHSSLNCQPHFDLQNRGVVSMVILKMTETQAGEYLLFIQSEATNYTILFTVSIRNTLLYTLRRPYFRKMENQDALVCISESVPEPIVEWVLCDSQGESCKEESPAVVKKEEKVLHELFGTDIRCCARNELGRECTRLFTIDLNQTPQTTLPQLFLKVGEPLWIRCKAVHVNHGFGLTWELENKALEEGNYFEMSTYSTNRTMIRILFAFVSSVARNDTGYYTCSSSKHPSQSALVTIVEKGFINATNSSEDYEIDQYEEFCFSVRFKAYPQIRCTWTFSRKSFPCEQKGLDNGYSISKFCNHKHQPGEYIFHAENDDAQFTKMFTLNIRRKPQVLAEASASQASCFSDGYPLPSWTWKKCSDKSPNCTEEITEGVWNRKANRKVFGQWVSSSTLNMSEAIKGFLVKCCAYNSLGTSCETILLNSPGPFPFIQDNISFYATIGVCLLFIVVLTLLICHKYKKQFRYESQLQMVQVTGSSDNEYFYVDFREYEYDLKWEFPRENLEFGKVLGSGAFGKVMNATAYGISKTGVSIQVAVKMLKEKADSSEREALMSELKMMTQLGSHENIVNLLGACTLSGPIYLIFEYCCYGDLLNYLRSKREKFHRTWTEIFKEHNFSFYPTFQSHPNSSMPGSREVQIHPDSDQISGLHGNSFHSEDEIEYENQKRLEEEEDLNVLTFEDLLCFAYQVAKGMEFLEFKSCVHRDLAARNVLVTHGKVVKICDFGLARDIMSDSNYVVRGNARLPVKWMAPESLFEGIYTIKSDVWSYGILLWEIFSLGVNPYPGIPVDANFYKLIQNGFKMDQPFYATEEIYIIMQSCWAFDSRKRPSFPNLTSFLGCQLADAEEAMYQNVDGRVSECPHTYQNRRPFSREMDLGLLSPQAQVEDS
In words: TR-FRET kinase activity assay, FLT3. The note with it: ATP at Km, 60 minutes. How it is done:
as §1, §2

Another assay deals with T3, MERTK (Homo sapiens, UniProt Q12866).
T3 sequence (Q12866 21-999): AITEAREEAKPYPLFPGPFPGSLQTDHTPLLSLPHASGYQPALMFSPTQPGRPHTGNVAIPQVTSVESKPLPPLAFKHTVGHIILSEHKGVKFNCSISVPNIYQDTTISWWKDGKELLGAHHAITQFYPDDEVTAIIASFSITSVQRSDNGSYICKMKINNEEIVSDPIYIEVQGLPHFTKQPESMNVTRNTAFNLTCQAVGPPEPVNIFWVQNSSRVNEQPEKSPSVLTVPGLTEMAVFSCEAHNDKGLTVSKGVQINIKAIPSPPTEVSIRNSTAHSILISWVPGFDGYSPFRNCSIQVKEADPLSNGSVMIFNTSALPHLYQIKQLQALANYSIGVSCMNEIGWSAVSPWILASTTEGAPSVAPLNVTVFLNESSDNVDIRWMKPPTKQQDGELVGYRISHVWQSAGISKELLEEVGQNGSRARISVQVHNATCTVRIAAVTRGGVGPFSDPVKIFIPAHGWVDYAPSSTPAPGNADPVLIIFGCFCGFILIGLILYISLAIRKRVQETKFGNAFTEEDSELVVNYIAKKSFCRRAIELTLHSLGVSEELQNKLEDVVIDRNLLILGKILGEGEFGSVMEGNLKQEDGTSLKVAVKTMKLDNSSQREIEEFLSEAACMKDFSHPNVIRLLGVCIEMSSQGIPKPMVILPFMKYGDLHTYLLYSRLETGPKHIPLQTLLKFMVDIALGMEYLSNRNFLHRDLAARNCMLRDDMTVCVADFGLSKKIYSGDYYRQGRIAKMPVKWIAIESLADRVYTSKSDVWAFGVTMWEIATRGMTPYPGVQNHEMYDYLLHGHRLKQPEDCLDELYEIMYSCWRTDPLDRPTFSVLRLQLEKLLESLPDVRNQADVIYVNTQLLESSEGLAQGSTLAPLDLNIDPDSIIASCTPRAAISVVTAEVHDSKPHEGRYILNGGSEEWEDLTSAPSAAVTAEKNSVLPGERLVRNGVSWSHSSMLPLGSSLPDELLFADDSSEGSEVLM
In words: TR-FRET kinase activity assay, MERTK. The note with it: for IC50: TR-FRET activity assay, ATP at Km, 60 minutes, read-out: Mer IC50; for Mer/Flt3 ratio (FLT3 IC50/Mer IC50): ratio calculated as FLT3 IC50/Mer IC50. How it is done:
as §1, §2

Structures are written as SMILES. Where only a bound is given, the exact number is not on record here.

As for `CCCCNc1ncc2c(=O)n(Cc3ccc(F)cc3)cc([C@H]3CC[C@H](O)CC3)c2n1` [Compound 105], the IC50 (as a rule, the concentration at which inhibition is half-maximal) against AXL was 100 to 1000 nM; on FLT3 it was 100 to 1000 nM; at MERTK, no more than 100 nM. Moreover, the “Mer/Flt3 ratio (FLT3 IC50/Mer IC50)” value at MERTK was “+ (a ratio of >2.0 and <10)”.
In the case of `CCCCNc1ncc2c(=O)n(C3CCOCC3)cc([C@H]3CC[C@H](O)CC3)c2n1` [Compound 106, 2-(butylamino)-8-(4-hydroxycyclohexyl)-6-tetrahydropyran-4-yl-pyrido[4,3-d]pyrimidin-5-one], the results for the IC50 against AXL, against FLT3 and on MERTK were 100 to 1000 nM, 100 to 1000 nM and no more than 100 nM, respectively. For the same compound, the “Mer/Flt3 ratio (FLT3 IC50/Mer IC50)” value at MERTK is “+ (a ratio of >2.0 and <10)”.
Take `COCC(COC)Nc1ncc2c(=O)n(C3CCNCC3)cc([C@H]3CC[C@H](O)CC3)c2n1` [Compound 110]: the IC50 at AXL, on FLT3 and on MERTK was 1000 to 10000 nM each time. On MERTK, the “Mer/Flt3 ratio (FLT3 IC50/Mer IC50)” value was “NS (a ratio of ≤2.0)”.
With `COCC(C)Nc1ncc2c(=O)n(C3CCNCC3)cc(C3CCC(O)CC3)c2n1` (centres unmarked) [Compound 111, 8-((1r,4r)-4-hydroxycyclohexyl)-2-((1-methoxypropan-2-yl)amino)-6-(piperidin-4-yl)pyrido[4,3-d]pyrimidin-5(6H)-one], the figures for the concentration for half-maximal inhibition (IC50) at AXL, at FLT3 and at MERTK were 100 to 1000 nM, 1000 to 10000 nM and no more than 100 nM, respectively. Also, the “Mer/Flt3 ratio (FLT3 IC50/Mer IC50)” value at MERTK was “+++ (a ratio of >100)”.
Taken in the same sequence, the figures for `CCCCC[C@H](C)Nc1ncc2c(OC3CCOCC3)ncc([C@H]3CC[C@H](O)CC3)c2n1` [Compound 113] were 100 to 1000 nM, 1000 to 10000 nM, no more than 100 nM and “+++ (a ratio of >100)”.
Taken in the same sequence, the figures for `CCCCNc1ncc2c(NC3CCN(C)CC3)ncc([C@H]3CC[C@H](O)CC3)c2n1` [Compound 114] were 100 to 1000 nM, no more than 100 nM, no more than 100 nM and “+++ (a ratio of >100)”.
Take `CCCCNc1ncc2c(Oc3ccc(F)cc3)ncc([C@H]3CC[C@H](O)CC3)c2n1` [Compound 115]: the IC50 at AXL was 1000 to 10000 nM; at FLT3 it was no more than 100 nM; at MERTK, no more than 100 nM. For the same compound, the “Mer/Flt3 ratio (FLT3 IC50/Mer IC50)” value on MERTK was “+ (a ratio of >2.0 and <10)”.
For the compound `COCC(C)Nc1ncc2c(=O)n(C3CCN(C)CC3)cc([C@H]3CC[C@H](O)CC3)c2n1` (some centres unmarked) [Compound 118], the figures for the IC50 against AXL, at FLT3 and at MERTK were 100 to 1000 nM, 1000 to 10000 nM and 100 to 1000 nM, respectively. Moreover, the “Mer/Flt3 ratio (FLT3 IC50/Mer IC50)” value at MERTK is “++ (a ratio of between 10 and 100)”.
Consider `CCCCC[C@H](C)Nc1ncc2c(OC3CCNCC3)ncc([C@H]3CC[C@H](O)CC3)c2n1` [Compound 121], for which the figures for the IC50 at AXL, against FLT3 and on MERTK were 100 to 1000 nM, 1000 to 10000 nM and no more than 100 nM, respectively. In addition, the “Mer/Flt3 ratio (FLT3 IC50/Mer IC50)” value on MERTK is given as “+++ (a ratio of >100)”.
Taken in the same sequence, the figures for `CCCCNc1ncc2c(N(C)C)ncc([C@H]3CC[C@H](O)CC3)c2n1` [Compound 123] were 100 to 1000 nM, no more than 100 nM, 1000 to 10000 nM and “NS (a ratio of ≤2.0)”.
In the case of `CC[C@H](C)Nc1ncc2c(OCC34CCC(N)(CC3)CC4)ncc([C@H]3CC[C@H](O)CC3)c2n1` [Compound 252], the IC50 on AXL is 100 to 1000 nM; against FLT3 it was 1000 to 10000 nM; at MERTK, no more than 100 nM. In addition, the “Mer/Flt3 ratio (FLT3 IC50/Mer IC50)” value on MERTK was “++ (a ratio of between 10 and 100)”.

The values above are taken from patent publication US20200291018A1, “TAM KINASE INHIBITORS” (SYROS PHARMACEUTICALS, INC., priority 2017, published 2020).
